US20240254547A1, “HIGHLY ACCURATE […]” (KAO CORPORATION, priority 2018, published 2024)

System: TA100 strain of Salmonella typhimurium (S. typhimurium) LT-2
Assay: Ames test (pre-incubation method), number of revertant colonies
Format: cell-based
Details: for Number of revertant colonies in Ames test, Mean: mean of three plates
Description: Exposure of cells to ENU was performed in accordance with the pre-incubation method of the Ames test (K. Mortelmans et al. Mutat. Res.—Fundam. Mol. Mech. Mutagen. 455:29-60, 2000). TA100 strain was seeded in 2 mL of Nutrient Broth No. 2 (produced by Oxoid Limited), and subjected to shaking culture at 37° C. and 180 rpm for 4 hours to afford pre-culture solution with an O.D.660 value of 1.0 or higher. ENU (produced by Sigma-Aldrich Co. LLC.) was diluted with dimethylsulfoxide (DMSO; produced by Wako Pure Chemical Industries, Ltd.). Into test tubes, 100 μL of the ENU solution, 500 μL of 0.1 M phosphate buffer, and 100 μL of the pre-culture solution were added (amount of ENU: 62.5, 125, 250, 500, and 1,000 μg/tube), and the resultants were subjected to shaking culture at 100 rpm in a water bath at 37° C. for 20 minutes (ENU group). For a control group, 100 μL of solvent (DMSO) was added instead of the ENU solution. After shaking culture for 20 minutes, the test tubes each containing a culture solution were taken out of the water bath, and 50 μL of each culture solution was added to 2 mL of Nutrient Broth solution aliquoted in advance, and the resultant was further cultured in an incubator at 37° C. and 180 rpm for 14 hours, from which the bacterial suspensions were then collected and centrifuged at 7,500 rpm for 5 minutes, and the supernatants were removed to collect the bacterial cells.
For the Ames test, a bacterial suspension exposed to ENU by using the pre-incubation method was produced under the above-described conditions, and 2 mL of top agar (containing 1% NaCl, 1% agar, 0.05 mM histidine, and 0.05 mM biotine) warmed to 45° C. was added thereto and the resultant was suspended by using a Vortex, and poured onto a minimal glucose agar medium (Tesmedia® AN; produced by Oriental Yeast Co., Ltd.) to form a layer. The resulting plate was subjected to culturing at 37° C. for 48 hours, and the number of colonies observed was counted.

For `CCN(N=O)C(N)=O` [ENU, ethylnitrosourea], the “Number of revertant colonies after exposure to ENU versus DMSO control” value (62.5 to 1,000 μg/plate) was “increase”, the “Number of revertant colonies in Ames test, Mean” value (shortened to “Number … Mean”) (ENU 62.5 μg/plate) was 207.3 and the “Number of revertant colonies in Ames test” value (ENU 62.5 μg/plate, plate 1) was 220. The “Number of revertant colonies in Ames test” value (ENU 62.5 μg/plate, plate 2) was 192, the “Number of revertant colonies in Ames test” value (ENU 62.5 μg/plate, plate 3) was 210 and the “Number … Mean” value (ENU 125 μg/plate) was 381.3. The “Number of revertant colonies in Ames test” value (ENU 125 μg/plate, plate 1) was 430, the “Number of revertant colonies in Ames test” value (ENU 125 μg/plate, plate 2) was 391 and the “Number of revertant colonies in Ames test” value (ENU 125 μg/plate, plate 3) was 323. For the same molecule, the “Number … Mean” value (ENU 250 μg/plate) was 1389.0, the “Number of revertant colonies in Ames test” value (ENU 250 μg/plate, plate 1) was 1482 and the “Number of revertant colonies in Ames test” value (ENU 250 μg/plate, plate 2) was 1359. The “Number of revertant colonies in Ames test” value (ENU 250 μg/plate, plate 3) was 1326, the “Number … Mean” value (ENU 500 μg/plate) was 3960.7 and the “Number of revertant colonies in Ames test” value (ENU 500 μg/plate, plate 1) was 4095. The “Number of revertant colonies in Ames test” value (ENU 500 μg/plate, plate 2) was 4006, the “Number of revertant colonies in Ames test” value (ENU 500 μg/plate, plate 3) was 3751 and the “Number … Mean” value (ENU 1000 μg/plate) was 2534.0. The “Number of revertant colonies in Ames test” value (ENU 1000 μg/plate, plate 1) was 1659, the “Number of revertant colonies in Ames test” value (ENU 1000 μg/plate, plate 2) was 3206 and the “Number of revertant colonies in Ames test” value (ENU 1000 μg/plate, plate 3) was 2737.
